Measurements: ChEMBL document CHEMBL3886288, “Thieno[3,2-D]pyrimidine derivatives having inhibitory activity for protein kinases” (2015)

Columns and labels:
[1] = target: Serine/threonine-protein kinase B-raf (Homo sapiens, UniProt P15056); experiment: (§1) Kinase Activity: The compounds prepared in Examples were tested for inhibitory activity against three subtypes of RAF, i.e., RAF1 Y340D Y341D (C-RAF), B-RAF normal type and B-RAF^V600E using Kinase Profiling Service (Invitrogen, U.S.) according to the manufacturer's instructions. The levels of enzymatic inhibition of the compounds were calculated as percent inhibition at various concentrations.
[2] = target: RAF proto-oncogene serine/threonine-protein kinase (Homo sapiens, UniProt P04049, Y340D/Y341D); experiment: as §1
[3] = target: Serine/threonine-protein kinase B-raf (Homo sapiens, UniProt P15056, V600E); experiment: as §1
[4] = target: Macrophage colony-stimulating factor 1 receptor (Homo sapiens, UniProt P07333); experiment: Kinase Activity: The compounds prepared in Examples were tested for inhibitory activity against FMS, DDR1 and DDR2 kinases using Kinase Screening and Profiling Service (Invitrogen, U.S.).
Sequence of Macrophage colony-stimulating factor 1 receptor (P07333 whole entry): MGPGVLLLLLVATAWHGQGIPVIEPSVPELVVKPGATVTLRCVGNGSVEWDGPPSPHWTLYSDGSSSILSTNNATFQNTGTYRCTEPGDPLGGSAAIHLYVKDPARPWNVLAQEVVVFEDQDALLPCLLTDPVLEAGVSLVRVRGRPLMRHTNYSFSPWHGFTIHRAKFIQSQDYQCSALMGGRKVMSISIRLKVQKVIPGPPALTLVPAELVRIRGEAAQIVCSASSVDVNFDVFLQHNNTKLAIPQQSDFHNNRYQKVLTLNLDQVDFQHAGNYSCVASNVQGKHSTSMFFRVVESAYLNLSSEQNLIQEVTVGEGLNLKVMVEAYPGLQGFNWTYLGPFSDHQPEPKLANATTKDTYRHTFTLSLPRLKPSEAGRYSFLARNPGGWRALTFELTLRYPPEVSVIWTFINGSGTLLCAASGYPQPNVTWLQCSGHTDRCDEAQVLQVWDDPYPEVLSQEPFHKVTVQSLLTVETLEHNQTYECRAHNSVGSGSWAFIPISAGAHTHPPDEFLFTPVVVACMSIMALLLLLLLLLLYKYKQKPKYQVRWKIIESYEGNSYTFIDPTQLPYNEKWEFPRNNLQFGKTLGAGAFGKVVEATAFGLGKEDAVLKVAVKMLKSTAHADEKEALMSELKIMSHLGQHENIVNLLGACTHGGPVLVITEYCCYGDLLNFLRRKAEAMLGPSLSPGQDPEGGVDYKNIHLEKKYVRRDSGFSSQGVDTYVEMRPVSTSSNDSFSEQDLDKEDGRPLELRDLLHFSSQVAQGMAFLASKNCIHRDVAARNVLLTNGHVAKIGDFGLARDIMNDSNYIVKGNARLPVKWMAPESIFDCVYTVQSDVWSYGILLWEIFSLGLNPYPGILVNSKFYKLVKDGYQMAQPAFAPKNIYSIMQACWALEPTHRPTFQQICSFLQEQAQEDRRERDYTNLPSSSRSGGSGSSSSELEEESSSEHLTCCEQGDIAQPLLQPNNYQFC

Sequence of Serine/threonine-protein kinase B-raf (Homo sapiens, UniProt P15056, V600E) (P15056 2-766 V600E limits assumed): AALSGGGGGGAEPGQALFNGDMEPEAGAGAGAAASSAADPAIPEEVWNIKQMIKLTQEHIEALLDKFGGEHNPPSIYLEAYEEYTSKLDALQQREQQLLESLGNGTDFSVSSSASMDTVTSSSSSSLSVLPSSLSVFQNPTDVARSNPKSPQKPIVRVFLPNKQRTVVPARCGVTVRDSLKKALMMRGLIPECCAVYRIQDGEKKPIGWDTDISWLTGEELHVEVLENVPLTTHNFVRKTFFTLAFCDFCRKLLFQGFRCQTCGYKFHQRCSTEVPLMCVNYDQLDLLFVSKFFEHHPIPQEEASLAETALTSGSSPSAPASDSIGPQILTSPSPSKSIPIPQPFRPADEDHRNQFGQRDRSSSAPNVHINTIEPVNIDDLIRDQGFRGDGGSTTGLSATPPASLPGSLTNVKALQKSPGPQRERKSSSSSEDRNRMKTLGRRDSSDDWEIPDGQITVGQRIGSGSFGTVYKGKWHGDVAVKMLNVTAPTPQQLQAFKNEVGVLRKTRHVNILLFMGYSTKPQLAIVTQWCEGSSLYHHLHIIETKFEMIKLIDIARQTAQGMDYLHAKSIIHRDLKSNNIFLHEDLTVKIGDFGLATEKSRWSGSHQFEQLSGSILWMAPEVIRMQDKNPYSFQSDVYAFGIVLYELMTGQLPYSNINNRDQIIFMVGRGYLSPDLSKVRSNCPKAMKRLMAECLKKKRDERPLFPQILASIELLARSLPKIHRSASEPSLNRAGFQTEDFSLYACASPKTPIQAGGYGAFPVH
Sequence of RAF proto-oncogene serine/threonine-protein kinase (P04049 whole entry Y340D/Y341D): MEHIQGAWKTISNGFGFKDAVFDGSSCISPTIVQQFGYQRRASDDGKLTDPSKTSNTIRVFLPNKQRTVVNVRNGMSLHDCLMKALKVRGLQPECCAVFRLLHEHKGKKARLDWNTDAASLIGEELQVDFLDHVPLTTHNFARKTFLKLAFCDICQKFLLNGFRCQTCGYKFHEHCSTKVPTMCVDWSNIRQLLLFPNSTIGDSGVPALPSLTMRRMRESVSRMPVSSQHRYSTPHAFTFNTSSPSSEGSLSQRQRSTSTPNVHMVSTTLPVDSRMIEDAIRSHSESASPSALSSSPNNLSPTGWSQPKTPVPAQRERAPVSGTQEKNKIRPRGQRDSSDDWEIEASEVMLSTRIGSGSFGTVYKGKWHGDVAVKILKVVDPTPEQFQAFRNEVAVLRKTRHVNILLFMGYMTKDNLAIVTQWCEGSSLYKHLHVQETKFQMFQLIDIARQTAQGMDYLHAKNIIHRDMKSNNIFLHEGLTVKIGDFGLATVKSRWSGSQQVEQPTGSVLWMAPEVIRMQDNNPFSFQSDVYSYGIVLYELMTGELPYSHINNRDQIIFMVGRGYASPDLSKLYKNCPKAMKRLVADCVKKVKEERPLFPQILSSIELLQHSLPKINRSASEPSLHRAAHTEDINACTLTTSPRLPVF
Sequence of Serine/threonine-protein kinase B-raf (Homo sapiens, UniProt P15056) (P15056 whole entry): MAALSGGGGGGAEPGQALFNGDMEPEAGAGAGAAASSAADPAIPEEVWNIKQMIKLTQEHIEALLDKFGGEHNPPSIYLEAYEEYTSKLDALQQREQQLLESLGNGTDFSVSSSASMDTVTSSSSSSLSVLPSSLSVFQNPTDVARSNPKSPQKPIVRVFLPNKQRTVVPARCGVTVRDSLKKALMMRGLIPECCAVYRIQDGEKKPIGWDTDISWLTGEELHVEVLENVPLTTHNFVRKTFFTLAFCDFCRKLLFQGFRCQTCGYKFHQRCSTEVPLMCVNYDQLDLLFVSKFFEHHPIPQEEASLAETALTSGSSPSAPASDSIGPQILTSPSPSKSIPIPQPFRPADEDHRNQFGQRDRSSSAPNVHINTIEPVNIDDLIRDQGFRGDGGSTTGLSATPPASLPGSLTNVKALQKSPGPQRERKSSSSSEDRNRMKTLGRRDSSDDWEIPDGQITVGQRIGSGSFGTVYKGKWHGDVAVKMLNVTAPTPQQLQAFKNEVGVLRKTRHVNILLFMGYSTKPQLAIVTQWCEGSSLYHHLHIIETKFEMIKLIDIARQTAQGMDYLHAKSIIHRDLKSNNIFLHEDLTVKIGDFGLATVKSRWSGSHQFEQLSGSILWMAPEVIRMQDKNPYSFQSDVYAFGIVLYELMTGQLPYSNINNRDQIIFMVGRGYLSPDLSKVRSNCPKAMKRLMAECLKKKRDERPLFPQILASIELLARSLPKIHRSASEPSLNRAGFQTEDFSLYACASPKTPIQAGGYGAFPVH

IC50 [1]: 66 nM
IC50 [2]: 5 nM
IC50 [3]: 9 nM
IC50 [4]: 57 nM
Structure (SMILES): Cc1ccc2c(Nc3cccc(Cl)c3)nccc2c1NC(=O)c1csc2c(N)ncnc12
